# Laboratory results: article PMC12481576, “Barbituric Acid Derivatives as Covalent Inhibitors of Leishmania braziliensis Dihydroorotate Dehydrogenase” (Journal of Medicinal Chemistry, 2025)
# Where two headings read alike, the source gives them in different places.
# Columns and labels:
# LbDHODH = LbDHODH (Leishmania braziliensis, UniProt E9AI53); test: biochemical; conditions: for IC50: LbDHODH
# Protocol: To assess the ability of compounds 2a–2i to inhibit LbDHODH via covalent bond formation with Cys^131, we initially screened them at a concentration of 100 μM under two conditions: with and without a 4-h preincubation with the enzyme.
# The experiments were performed in a 96-well microplate reader (SpectraMax Plus 384, Molecular Devices, USA), containing the […] of the buffer 60 mM DCIP, 50 mM Tris pH 8.15, 150 mM KCl, 0.1% Triton X-100, 50 μM DHO and 10 μM of LbDHODH at 165 nM. The reaction was monitored every 3 s at 610 nm over a period of 60 s, in triplicate, for the control and each concentration of the inhibitor. All assays were performed without incubation (0h) and with 4-h preincubation of the inhibitor with LbDHODH, using 5% DMSO (v/v) as control. […]. […] The resulting kobs values were plotted as a function of inhibitor concentration, and the data in the initial linear region was fit to determine the slope, which is kinact/KI. All regressions were performed with GraphPad Prism 9.
# [1] = Cell viability / cytotoxicity assay (PrestoBlue, 72 h); type: cell-based; conditions: human; THP-1 cell line, 72 h, max 200 μM; read-out: CC50
# Protocol: THP-1 cells (American Type Cell Collection, #TIB-202) were acquired in 2019 and stored frozen in liquid nitrogen. The cells were then maintained in RPMI 1640 (Thermo Fisher Scientific, #S31800–022) at 37 °C in a 5% CO2 atmosphere and routinely tested for Mycoplasma contamination by PCR using the primers 5′-[…] and 5′-[…]. To test the toxicity of compounds, 5000 cells were added to 96-well plates with a final volume of 80 μL centrifuged at 400g for 2 min and incubated with 150 ng/mL of phorbol myristate acetate (Merck, #P8139) for 48 h. The medium was replaced, and after 24 h, the compounds were added and tested at decreasing concentrations starting from 200 μM (10 μL/well). After 72 h of incubation, 10 μL of PrestoBlue Cell Viability Reagent (Thermo Fisher Scientific, #A13262) was added per well. After adding the reagent, the cells were incubated for 2 h at 37 °C in a 5% CO2 atmosphere, and fluorescence readings were performed using the SpectraMax M3 reader (excitation at 560 nm and emission at 590 nm).
# [2] = test system: Leishmania braziliensis promastigotes; test: Leishmanicidal activity, promastigote growth (SYBR Green, 72 h); type: cell-based, Leishmania (V.) braziliensis (MHOM/BR/1975/M2904); conditions: Leishmania braziliensis, L. braziliensis promastigotes, max 200 μM
# Protocol: The cultures were adjusted to 4 × 10^6 parasites per mL, and 50 μL of each culture was added on a test plate with 384 wells (Corning, #CLS3658), along with the controls and compounds to be tested. Previously diluted compounds in DMSO were added to plates in decreasing concentrations, with a maximum concentration of 200 μM. Parasites were exposed to a final concentration of DMSO in various dilutes (final = 0.5%), and the culture medium was used as the control for the experiment. […] After adding the lysis buffer, the plates were incubated in the dark for 2 h with gentle shaking. The readings were done using a SpectraMax M3 reader (excitation at 485 nm and emission at 535 nm).
# HsDHODH = biological target: T1, HsDHODH (Homo sapiens, UniProt Q02127); test: Selectivity assay: HsDHODH single-dose inhibition (DCIP reduction); type: biochemical
# T1 construct: made in house
# Protocol: […]. This finding highlights the potential of barbituric acid derivatives as selective inhibitors of LbDHODH.
# Human DHODH expression and purification were conducted following a protocol previously established in our laboratory. The purification was carried out by affinity chromatography on a Ni-NTA Agarose column (Qiagen[…] Cat. No. 30210). […] The reaction was performed in triplicate, initiated by adding 195 μL of reaction buffer to 5 μL of HsDHODH protein solution for a final concentration of 20 nM enzyme. As a blank, 195 μL of reaction buffer was added to 5 μL of Buffer A. The reaction was monitored at 610 nm every 3 s over 60 s. As a control, 5 μL of enzyme was added to 195 μL of reaction medium without compound. Enzymatic velocity was calculated, and the percentage of relative enzymatic activity was determined relative to the control.
# [3] = IC50 0 h, without preincubation
# [4] = read-out: Single dose (0h) % activity
# [5] = read-out: Single dose (4h) % activity
# LbDHODH, sequence (E9AI53 entry or part of it): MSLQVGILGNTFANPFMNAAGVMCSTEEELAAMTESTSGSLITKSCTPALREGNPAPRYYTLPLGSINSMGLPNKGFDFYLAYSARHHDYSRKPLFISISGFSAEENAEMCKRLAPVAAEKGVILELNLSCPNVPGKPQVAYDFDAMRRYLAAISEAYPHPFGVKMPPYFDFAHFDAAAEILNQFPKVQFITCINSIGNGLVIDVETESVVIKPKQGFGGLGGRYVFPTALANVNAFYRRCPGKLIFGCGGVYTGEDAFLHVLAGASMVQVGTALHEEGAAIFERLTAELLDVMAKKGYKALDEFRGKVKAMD
# T1 sequence (Q02127 whole entry): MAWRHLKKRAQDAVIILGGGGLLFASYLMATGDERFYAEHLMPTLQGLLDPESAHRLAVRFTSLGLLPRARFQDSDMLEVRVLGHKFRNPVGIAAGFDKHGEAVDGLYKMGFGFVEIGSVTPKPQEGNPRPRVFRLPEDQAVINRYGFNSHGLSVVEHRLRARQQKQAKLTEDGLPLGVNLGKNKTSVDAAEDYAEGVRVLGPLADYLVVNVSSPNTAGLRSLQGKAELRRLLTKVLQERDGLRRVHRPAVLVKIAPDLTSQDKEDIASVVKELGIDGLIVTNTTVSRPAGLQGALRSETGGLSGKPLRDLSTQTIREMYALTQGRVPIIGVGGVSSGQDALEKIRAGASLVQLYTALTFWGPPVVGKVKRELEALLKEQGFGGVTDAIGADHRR
SMILES,IC50 (LbDHODH; [3]) [µM],"IC50 (LbDHODH; IC50 4 h, 4-h preincubation) [µM]",activity at 100 µM (LbDHODH; [4]) [%],activity at 100 µM (LbDHODH; [5]) [%],CC50 at 72 h [1] [µM],EC50 [2] [µM],activity at 100 µM (HsDHODH; [4]) [%],activity at 100 µM (HsDHODH; [5]) [%]
"COc1cc(CC2C(=O)NC(=O)NC2=O)ccc1O [3c, 5-(4-Hydroxy-3-methoxybenzyl)pyrimidine-2,4,6(1H,3H,5H)-trione]",> 100,> 100,98 ± 7,60 ± 10,> 200,> 200,87 ± 10,79 ± 8
"O=C1NC(=O)C(Cc2ccc(N3CCOCC3)cc2[N+](=O)[O-])C(=O)N1 [3e, 5-(4-Morpholino-2-nitrobenzyl)pyrimidine-2,4,6(1H,3H,5H)-trione]",> 100,> 100,90 ± 10,80 ± 20,> 200,23 ± 16,105 ± 12,89 ± 9
